Assay: wn = mass fraction of the nth substance listed
Conditions: 101 kPa, Liquid, Concentric cylinders viscometry

O=C([O-])[O-].[K+].[K+] [potassium carbonate] + O
viscosity [mPa·s]
Conditions | 303.2 K | 313.2 K | 323.2 K
w1 = 0.15 | 1.27 | 1.08 | 0.92
w1 = 0.2 | 1.43 | 1.22 | 1.05
w1 = 0.2501 | 1.64 | 1.39 | 1.2
